# Experimental data: patent US20250313563A1, “GLYCOGEN SYNTHASE KINASE 3 INHIBITORS AND USES THEREOF” (The Broad Institute, Inc., priority 2022, published 2025)
# pIC50: −log10 of the molar value. Read-outs that look alike come from different tables or passages of the source.
# Assays:
# [1] = biological target: GSK3α (GST-full length GSK3α) (Homo sapiens (Human), UniProt P49840); test: GSK3α TR-FRET kinase assay; format: biochemical
# How it was run: (§1)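 IC50 came from the normalized 665/615 nm TR-FRET ratio plotted against log compound concentration. The Tb-labelled pSer641 antibody and streptavidin-d2 detected phosphorylation of biotinylated S645-primed glycogen synthase peptide (200 nM) by 1 nM full-length GST-kinase. ATP was 4 μM for α, 2 μM for β, or 1 mM.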
# [2] = biological target: GSK3b (GST-full length GSK3b) (Homo sapiens (Human), UniProt P49841); test: GSK3b TR-FRET kinase assay; format: biochemical
# How it was run: as §1
# [3] = 1 nM GSK3α, 4 μM ATP, 30 minute preincubation, Table 16, read-out: GSK3-A TR-FRET BIOCHEMICAL (TR-FRET), IC50
# [4] = 1 nM GSK3b, 2 μM ATP, 30 minute preincubation, Table 16, read-out: GSK3-B TR-FRET BIOCHEMICAL (TR-FRET), IC50
# [5] = 1 nM GSK3α, 4 μM ATP, 30 minute preincubation, Table 16, read-out: GSK3-A TR-FRET BIOCHEMICAL (TR-FRET)
# [6] = 1 nM GSK3b, 2 μM ATP, 30 minute preincubation, Table 16, read-out: GSK3-B TR-FRET BIOCHEMICAL (TR-FRET)
# [7] = 1 nM GSK3α, 4 μM ATP, 30 minute preincubation, geometric mean, read-out: GSK3-A TR-FRET BIOCHEMICAL (TR-FRET), GMean, IC50
# [8] = 1 nM GSK3b, 2 μM ATP, 30 minute preincubation, geometric mean, read-out: GSK3-B TR-FRET BIOCHEMICAL (TR-FRET), GMean, IC50
# [9] = GSK3-A (TR-FRET 1 mM ATP), GMean, IC50, 1 mM ATP, geometric mean
# [10] = GSK3-B (TR-FRET 1 mM ATP), GMean, IC50, 1 mM ATP, geometric mean
# [11] = read-out: GSK3-A (TR-FRET 1 mM ATP), GMean, IC50, 1 mM ATP, geometric mean
# [12] = read-out: GSK3-B (TR-FRET 1 mM ATP), GMean, IC50, 1 mM ATP, geometric mean
# [13] = 1 nM GSK3α, 4 μM ATP, 30 minute preincubation, read-out: GSK3-A TR-FRET BIOCHEMICAL (TR-FRET), IC50
# [14] = 1 nM GSK3b, 2 μM ATP, 30 minute preincubation, read-out: GSK3-B TR-FRET BIOCHEMICAL (TR-FRET), IC50
# Chain of GSK3α (GST-full length GSK3α) (P49840 whole entry): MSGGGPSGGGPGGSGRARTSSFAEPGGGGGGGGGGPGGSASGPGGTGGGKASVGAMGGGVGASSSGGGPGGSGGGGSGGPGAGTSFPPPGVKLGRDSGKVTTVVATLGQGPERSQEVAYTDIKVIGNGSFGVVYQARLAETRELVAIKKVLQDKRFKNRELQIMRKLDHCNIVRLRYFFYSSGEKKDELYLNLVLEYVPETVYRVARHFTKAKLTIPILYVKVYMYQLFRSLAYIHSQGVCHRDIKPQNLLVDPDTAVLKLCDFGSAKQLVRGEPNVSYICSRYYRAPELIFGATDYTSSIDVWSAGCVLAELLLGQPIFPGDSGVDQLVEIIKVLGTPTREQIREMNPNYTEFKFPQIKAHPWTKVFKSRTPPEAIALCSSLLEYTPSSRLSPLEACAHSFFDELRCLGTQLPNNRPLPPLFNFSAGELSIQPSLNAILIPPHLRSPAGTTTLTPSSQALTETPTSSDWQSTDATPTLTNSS
# Chain of GSK3b (GST-full length GSK3b) (P49841 whole entry): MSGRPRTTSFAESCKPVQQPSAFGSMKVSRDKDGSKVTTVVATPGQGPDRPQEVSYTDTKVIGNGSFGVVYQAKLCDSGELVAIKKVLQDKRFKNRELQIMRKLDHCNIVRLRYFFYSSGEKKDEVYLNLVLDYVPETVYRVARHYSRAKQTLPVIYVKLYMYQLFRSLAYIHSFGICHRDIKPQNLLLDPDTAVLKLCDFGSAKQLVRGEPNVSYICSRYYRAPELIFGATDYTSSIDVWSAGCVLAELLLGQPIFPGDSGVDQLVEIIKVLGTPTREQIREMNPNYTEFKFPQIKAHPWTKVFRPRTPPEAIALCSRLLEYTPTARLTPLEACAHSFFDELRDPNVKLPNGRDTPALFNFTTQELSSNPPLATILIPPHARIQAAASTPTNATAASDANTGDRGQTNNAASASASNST
smiles,measurement,setting,value
CCC1(c2cccc(C(F)(F)F)c2)C2=C(CC(C)N(c3cnc(OC)nc3)C2=O)Nc2n[nH]cc21 (stereo not shown) [Compound 949351],pIC50,[1]; [3],≥ 7.00
same,pIC50,[2]; [4],6.00 to 7.00
COc1cccc(S(=O)(=O)N2CC[C@]3(C2)C2=C(CC(C)(C)CC2=O)Nc2n[nH]cc23)c1 [Compound 943486],pIC50,[1]; [5],≥ 7.00
same,pIC50,[2]; [6],≥ 7.00
CC1(C)CC(=O)C2=C(C1)Nc1[nH]nc(C3(C(F)(F)F)CC3)c1C21CCc2c(F)cccc21 (stereo not shown) [Compound 810591],pIC50,[1]; [7],6.00 to 7.00
same,pIC50,[2]; [8],6.00 to 7.00
CCC1(c2cccc(N(C)c3cc(C)nc(C)c3)c2)C2=C(CC(C)(C)CC2=O)Nc2n[nH]cc21 (stereo not shown) [Compound 913256],pIC50,[1]; [3],5.30 to 6.00
same,pIC50,[2]; [4],< 5.30
CC[C@@]1(c2cccc(-c3ccncc3C(F)(F)F)c2)C2=C(CC(C)(C)NC2=O)Nc2n[nH]cc21 [Compound 949516],pIC50,[1]; [3],5.30 to 6.00
same,pIC50,[2]; [4],< 5.30
Cc1cccc2c1CC[C@@]21C2=C(CC(C)(C)CC2=O)Nc2n[nH]cc21 [Compound 913137],pIC50,[1]; [3],< 5.30
same,pIC50,[2]; [4],< 5.30
CC1(C)CC2=C(C(=O)N1)[C@](C)(c1cccc(S(C)(=O)=O)c1)c1c(n[nH]c1C1CC1)N2 [Compound 114744],pIC50,[1]; [9],< 5.30
same,pIC50,[2]; [10],< 5.30
Cc1cccc2c1CCC21C2=C(CC(C)(C)CC2=O)Nc2n[nH]cc21 (stereo not shown) [Compound 806603],pIC50,[1]; [7],≥ 7.00
same,pIC50,[2]; [8],6.00 to 7.00
CC1(C)CC(=O)C2=C(Nc3n[nH]cc3C23CCN(S(=O)(=O)c2ccccc2C(F)F)CC3)[C@H]1F [Compound 951839],pIC50,[1]; [5],≥ 7.00
same,pIC50,[2]; [6],6.00 to 7.00
CCC1(c2cccc(-c3cnn(C)c3)c2)C2=C(CC(C)(C)CC2=O)Nc2n[nH]c(C(F)(F)F)c21 (stereo not shown) [Compound 811567],pIC50,[1]; [7],6.00 to 7.00
same,pIC50,[2]; [8],6.00 to 7.00
CC1(C)CC(=O)C2=C(Nc3n[nH]cc3C23CCCCC3)[C@@H]1F [Compound 951705],pIC50,[1]; [5],≥ 7.00
same,pIC50,[2]; [6],≥ 7.00
CCC1(c2cccc(-c3ccnc(C)c3)c2)C2=C(CC(C)(C)CC2=O)Nc2n[nH]cc21 (stereo not shown) [Compound 865170],pIC50,[1]; [7],5.30 to 6.00
same,pIC50,[2]; [8],< 5.30
CCC1(c2cccc(-c3c(F)cncc3F)c2)C2=C(CC(C)(C)NC2=O)Nc2n[nH]cc21 (stereo not shown) [Compound 948514],pIC50,[1]; [7],5.30 to 6.00
same,pIC50,[2]; [8],< 5.30
CC1(C)CC(=O)C2=C(C1)Nc1n[nH]cc1C21CN(S(=O)(=O)c2ccccc2F)C1 [Compound 913263],pIC50,[1]; [5],6.00 to 7.00
same,pIC50,[2]; [6],6.00 to 7.00
CCC1(c2ccccc2)C2=C(CC(C)(C(F)(F)F)CC2=O)Nc2n[nH]cc21 (stereo not shown) [Compound 816796],pIC50,[1]; [7],6.00 to 7.00
same,pIC50,[2]; [8],5.30 to 6.00
CCC1(c2cccc(-c3ccncc3)c2)C2=C(Nc3n[nH]cc31)C(F)C(C)(C)CC2=O (stereo not shown) [Compound 959341],pIC50,[1]; [5],≥ 7.00
same,pIC50,[1]; [11],5.30 to 6.00
same,pIC50,[2]; [6],6.00 to 7.00
same,pIC50,[2]; [12],< 5.30
CC[C@]1(c2cccc(-c3cc(C(F)(F)F)nn3C)c2)C2=C(CC(C)(C)NC2=O)Nc2n[nH]cc21 [Compound 952018],pIC50,[1]; [3],6.00 to 7.00
same,pIC50,[2]; [4],5.30 to 6.00
CC[C@@]1(c2cccc(-c3c(F)cncc3OC)c2)C2=C(CC(C)(C)C2=O)Nc2n[nH]cc21 [Compound 952564],pIC50,[1]; [3],≥ 7.00
same,pIC50,[1]; [11],6.00 to 7.00
same,pIC50,[2]; [4],≥ 7.00
same,pIC50,[2]; [12],5.30 to 6.00
CC1(C)CC(=O)C2=C(C1)Nc1n[nH]cc1[C@]21CC[C@@H](C(F)(F)F)C1 [Compound 952437],pIC50,[1]; [5],6.00 to 7.00
same,pIC50,[2]; [6],6.00 to 7.00
CC[C@@]1(c2cccc(-c3cc(OC)ncc3F)c2)C2=C(CC(C)(C)CC2=O)Nc2n[nH]cc21 [Compound 944035],pIC50,[1]; [5],5.30 to 6.00
same,pIC50,[2]; [6],< 5.30
CCC1(c2cccc(-c3ncnn3C)c2)C2=C(CC(C)(C)CC2=O)Nc2n[nH]cc21 (stereo not shown) [Compound 943532],pIC50,[1]; [5],≥ 7.00
same,pIC50,[2]; [6],6.00 to 7.00
CCC1(c2cccc(N(C)c3ncccn3)c2)C2=C(CC(C)(C)NC2=O)Nc2n[nH]c(C(F)(F)F)c21 (stereo not shown) [Compound 948176],pIC50,[1]; [7],≥ 7.00
same,pIC50,[2]; [8],≥ 7.00
CCC1(c2cccc(-c3cncn3C(C)C)c2)C2=C(Nc3n[nH]cc31)C(F)C(C)(C)CC2=O (stereo not shown) [Compound 963155],pIC50,[1]; [5],≥ 7.00
same,pIC50,[2]; [6],≥ 7.00
CC1(C)CC(=O)C2=C(C1)Nc1n[nH]cc1C21CCN(S(=O)(=O)c2cccc3c2OCCO3)CC1 [Compound 947464],pIC50,[1]; [13],≥ 7.00
same,pIC50,[1]; [9],≥ 7.00
same,pIC50,[2]; [14],≥ 7.00
same,pIC50,[2]; [10],6.00 to 7.00
CCC1(c2cccc(N(C)C(=O)c3cnn(C)c3)c2)C2=C(CC(C)(C)CC2=O)Nc2n[nH]cc21 (stereo not shown) [Compound 912068],pIC50,[1]; [3],≥ 7.00
same,pIC50,[2]; [4],6.00 to 7.00
CC[C@@]1(c2cccc(C(F)(F)F)c2)C2=C(CC(C)(C)NC2=O)Nc2n[nH]cc21 [Compound 913004],pIC50,[1]; [13],< 5.30
same,pIC50,[2]; [14],< 5.30
CC1(C)CC(=O)C2=C(C1)Nc1n[nH]cc1[C@]21CCc2c(F)cccc21 [Compound 806633],pIC50,[1]; [7],≥ 7.00
same,pIC50,[2]; [8],6.00 to 7.00
CC1(C)CC(=O)C2=C(C1)Nc1n[nH]cc1[C@]21CCCOCC1 [Compound 874535],pIC50,[1]; [5],≥ 7.00
same,pIC50,[2]; [6],≥ 7.00
CCC1(COC)C2=C(CC(C)(C)CC2=O)Nc2n[nH]cc21 (stereo not shown) [Compound 841866],pIC50,[1]; [3],< 5.30
same,pIC50,[2]; [4],< 5.30
C[C@@H]1CCC[C@]2(C1)C1=C(CC(C)(C)CC1=O)Nc1n[nH]cc12 [Compound 874532],pIC50,[1]; [5],≥ 7.00
same,pIC50,[2]; [6],≥ 7.00
Cn1cc(S(=O)(=O)N2CC[C@]3(C2)C2=C(CC(C)(C)CC2=O)Nc2n[nH]cc23)cn1 [Compound 943483],pIC50,[1]; [5],≥ 7.00
same,pIC50,[2]; [6],≥ 7.00
CCC1(c2cccc(Oc3ncccn3)c2)C2=C(CC(C)(C)CC2=O)Nc2n[nH]c(C(F)(F)F)c21 (stereo not shown) [Compound 951604],pIC50,[1]; [3],≥ 7.00
same,pIC50,[2]; [4],6.00 to 7.00
CC[C@]1(c2cccc(C(F)(F)F)c2)C2=C(C[C@@H](C(C)(C)C)NC2=O)Nc2n[nH]cc21 [Compound 945922],pIC50,[1]; [13],≥ 7.00
same,pIC50,[2]; [14],6.00 to 7.00
CC1(C)CC(=O)C2=C(C1)Nc1n[nH]cc1C21CS(=O)(=O)C1 [Compound 912170],pIC50,[1]; [3],5.30 to 6.00
same,pIC50,[2]; [4],< 5.30
CCC1(c2ccccc2)C2=C(Nc3n[nH]cc31)C1CCC1C2=O (stereo not shown) [Compound 861716],pIC50,[1]; [3],5.30 to 6.00
same,pIC50,[2]; [4],< 5.30
CC[C@@]1(c2ccccc2)C2=C(Nc3n[nH]cc31)[C@@H](C)C[C@@H](C)C2=O [Compound 909216],pIC50,[1]; [3],6.00 to 7.00
same,pIC50,[2]; [4],6.00 to 7.00
COc1ccc(S(=O)(=O)N2CCC3(CC2)C2=C(CC(C)(C)CC2=O)Nc2n[nH]cc23)cc1C [Compound 945680],pIC50,[1]; [5],≥ 7.00
same,pIC50,[2]; [6],≥ 7.00
CC[C@@]1(c2ccccc2)C2=C(CC3(CCCC3)CC2=O)Nc2n[nH]cc21 [Compound 789562],pIC50,[1]; [7],≥ 7.00
same,pIC50,[2]; [8],6.00 to 7.00
CC1(C)CC(=O)C2=C(C1)Nc1n[nH]cc1C21CCN(S(=O)(=O)c2cnc3cccnn23)CC1 [Compound 948120],pIC50,[1]; [5],≥ 7.00
same,pIC50,[1]; [9],6.00 to 7.00
same,pIC50,[2]; [6],≥ 7.00
same,pIC50,[2]; [10],5.30 to 6.00
COc1ccc(C)c(S(=O)(=O)N2CCC3(CC2)C2=C(CC(C)(C)CC2=O)Nc2n[nH]cc23)c1 [Compound 947245],pIC50,[1]; [5],≥ 7.00
same,pIC50,[2]; [6],6.00 to 7.00
CC1(C)CC(=O)C2=C(C1)Nc1n[nH]cc1C21CCN(c2ccncn2)CC1 [Compound 874529],pIC50,[1]; [5],6.00 to 7.00
same,pIC50,[2]; [6],5.30 to 6.00
Cc1cccc(S(=O)(=O)N2CC[C@@]3(C2)C2=C(CC(C)(C)CC2=O)Nc2n[nH]cc23)c1 [Compound 951864],pIC50,[1]; [5],≥ 7.00
same,pIC50,[1]; [9],6.00 to 7.00
same,pIC50,[2]; [6],≥ 7.00
same,pIC50,[2]; [10],5.30 to 6.00
